Assay results taken from patent US20230295234A1, “ANTIMICROBIAL PEPTIDOMIMETICS” (SPEXIS AG, priority 2020, published 2023).
Bridge positions count the residues as written; N and C are the ends. Square brackets hold non-standard residues; d marks the D form. Peptide text beside a SMILES is read from it. * marks the point of attachment. Pro(4R-NH2) = N[C@H]1CN[C@H](C(=O)O)C1; X2 = N=C(N)N1C[C@H](O)C[C@H]1C(=O)*; Gly(N-2-aminoethyl) = NCCNCC(=O)O; Gly(N(CH2)3NH2) = NCCCNCC(=O)O; Pen = CC(C)(S)[C@H](N)C(=O)O; dDab = NCC[C@@H](N)C(=O)O; Dab = NCC[C@H](N)C(=O)O; Nlys = NCCCCNCC(=O)O

What was measured:
[1] = tested on: Escherichia coli MCR-1 Af 45; details: MCR-1 Af 45
Procedure, shortened: (§1)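 Standardized inocula (0.5 McFarland in saline, then diluted in MHII broth to approximately 5×10^5 CFU/mL) were exposed to two-fold dilution series of each peptide in the presence of polysorbate 80 (0.002% final).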

[2] = tested on: Klebsiella pneumoniae SSI3010; details: SSI3010
Procedure, shortened: as §1

[3] = tested on: Escherichia coli ATCC 25922; details: ATCC 25922
Procedure, shortened: as §1

[4] = tested on: human red blood cells (hRBC); assay: Hemolysis of human red blood cells; format: cell-based; details: red cells of human, 1 h
Procedure, shortened: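 Percent hemolysis is OD540 of peptide-treated supernatant relative to water-lysed cells. Each peptide was tested at 200 μg/mL against 20% (v/v) washed human erythrocytes. Incubation was 1 h at 37 °C, 300 rpm.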

Compound	Escherichia coli MCR-1 Af 45 MIC [1] [µg/mL]	Klebsiella pneumoniae SSI3010 MIC [2] [µg/mL]	Escherichia coli ATCC 25922 MIC [3] [µg/mL]	Hemolysis at 0.2 g/L [4] [%]
CC[C@H](C)[C@H](NC(=O)CN(CCCCN)C(=O)[C@@H](NC(=O)CNCCCCN)C(C)C)C(=O)N[C@H](C(=O)N[C@@H](Cc1ccc(O)cc1)C(=O)N[C@@H]1C(=O)N[C@@H](CC(N)=O)C(=O)N[C@@H](CCCNC(=N)N)C(=O)N[C@@H](CCN)C(=O)N[C@@H]([C@@H](C)O)C(=O)N[C@H](CCN)C(=O)N[C@@H](CCCCN)C(=O)N[C@H](C(=O)N[C@@H](CCN)C(=O)N[C@@H](CCCNC(=N)N)C(=O)N[C@@H](Cc2ccc(O)cc2)C(=O)O)CSSC1(C)C)[C@@H](C)CC [Example 31, Nlys-Val-Nlys-Ile-Ile-Tyr-Pen-Asn-Arg-Dab-Thr-^DDab-Lys-Cys-Dab-Arg-Tyr] (H-[Nlys]V[Nlys]IIY[Pen]NR[Dab]T[dDab]KC[Dab]RY-OH; disulfide 7-14)	0.0625	0.25	0.125	0
CC[C@H](C)[C@H](NC(=O)CN(CCCN)C(=O)[C@@H](NC(=O)CNCCCN)C(C)C)C(=O)N[C@H](C(=O)N[C@@H](Cc1ccc(O)cc1)C(=O)N[C@@H]1C(=O)N[C@@H](CC(N)=O)C(=O)N[C@@H](CCCNC(=N)N)C(=O)N[C@@H](CCN)C(=O)N[C@@H]([C@@H](C)O)C(=O)N[C@H](CCN)C(=O)N[C@@H](CCCCN)C(=O)N[C@H](C(=O)N[C@@H](CCN)C(=O)N[C@@H](CCCNC(=N)N)C(=O)N[C@@H](Cc2ccc(O)cc2)C(=O)O)CSSC1(C)C)[C@@H](C)CC [Example 32, Norn-Val-Norn-Ile-Ile-Tyr-Pen-Asn-Arg-Dab-Thr-^DDab-Lys-Cys-Dab-Arg-Tyr] (H-[Gly(N(CH2)3NH2)]V[Gly(N(CH2)3NH2)]IIY[Pen]NR[Dab]T[dDab]KC[Dab]RY-OH; disulfide 7-14)	0.0625	0.125	0.125	0
CC[C@H](C)[C@H](NC(=O)[C@@H]1C[C@@H](O)CN1C(=O)[C@@H](NC(=O)CNCCCN)C(C)C)C(=O)N[C@H](C(=O)N[C@@H](Cc1ccc(O)cc1)C(=O)N[C@@H]1C(=O)N[C@@H](CC(N)=O)C(=O)N[C@@H](CCCNC(=N)N)C(=O)N[C@@H](CCN)C(=O)N[C@@H]([C@@H](C)O)C(=O)N[C@H](CCN)C(=O)N[C@@H](CCCCN)C(=O)N[C@H](C(=O)N[C@@H](CCN)C(=O)N[C@@H](CCCNC(=N)N)C(=O)N[C@@H](Cc2ccc(O)cc2)C(=O)O)CSSC1(C)C)[C@@H](C)O [Example 33, Norn-Val-Hyp-Ile-Thr-Tyr-Pen-Asn-Arg-Dab-Thr-^DDab-Lys-Cys-Dab-Arg-Tyr] (HELM PEPTIDE1{[NCCCNCC(=O)[*:2]].V.[Hyp].I.T.Y.[Pen].N.R.[Dab].T.[NCC[C@@H](N[*:1])C(=O)[*:2]].K.C.[Dab].R.Y}$PEPTIDE1,PEPTIDE1,7:R3-14:R3$$$V2.0)	0.125	0.25	0.125	0
CC[C@H](C)[C@H](NC(=O)[C@@H]1C[C@@H](O)CN1C(=O)[C@@H](NC(=O)CNCCCCN)C(C)C)C(=O)N[C@H](C(=O)N[C@@H](Cc1ccc(O)cc1)C(=O)N[C@@H]1C(=O)N[C@@H](CC(N)=O)C(=O)N[C@@H](CCCNC(=N)N)C(=O)N[C@@H](CCN)C(=O)N[C@@H]([C@@H](C)O)C(=O)N[C@H](CCN)C(=O)N[C@@H](CCCCN)C(=O)N[C@H](C(=O)N[C@@H](CCN)C(=O)N[C@@H](CCCNC(=N)N)C(=O)N[C@@H](Cc2ccc(O)cc2)C(=O)O)CSSC1(C)C)[C@@H](C)O [Example 34, Nlys-Val-Hyp-Ile-Thr-Tyr-Pen-Asn-Arg-Dab-Thr-^DDab-Lys-Cys-Dab-Arg-Tyr] (HELM PEPTIDE1{[NCCCCNCC(=O)[*:2]].V.[Hyp].I.T.Y.[Pen].N.R.[Dab].T.[NCC[C@@H](N[*:1])C(=O)[*:2]].K.C.[Dab].R.Y}$PEPTIDE1,PEPTIDE1,7:R3-14:R3$$$V2.0)	0.125	0.125	0.125	0
CC[C@H](C)[C@H](NC(=O)CN(CCN)C(=O)[C@@H](NC(=O)[C@@H]1C[C@@H](O)CN1C(=N)N)C(C)C)C(=O)N[C@H](C(=O)N[C@@H](Cc1ccc(O)cc1)C(=O)N[C@@H]1C(=O)N[C@@H](CC(N)=O)C(=O)N[C@@H](CCCNC(=N)N)C(=O)N[C@@H](CCN)C(=O)N[C@@H]([C@@H](C)O)C(=O)N[C@H](CCN)C(=O)N[C@@H](CCCCN)C(=O)N[C@H](C(=O)N[C@@H](CCN)C(=O)N[C@@H](CCCNC(=N)N)C(=O)N[C@@H](Cc2ccc(O)cc2)C(=O)O)CSSC1(C)C)[C@@H](C)O [Example 37, Gua-Hyp-Val-Ndab-Ile-Thr-Tyr-Pen-Asn-Arg-Dab-Thr-^DDab-Lys-Cys-Dab-Arg-Tyr] (X2-V[Gly(N-2-aminoethyl)]ITY[Pen]NR[Dab]T[dDab]KC[Dab]RY-OH; disulfide 6-13)	0.0625	0.25	0.25	0
CCCC[C@H](NC(=O)[C@H](CCCNC(=N)N)NC(=O)[C@H](CCN)NC(=O)[C@@H]1CSSC(C)(C)[C@H](NC(=O)[C@H](Cc2ccc(O)cc2)NC(=O)[C@@H](NC(=O)[C@@H](NC(=O)[C@@H]2CCCN2C(=O)[C@@H](NC(=O)CN(CCN)CCN)C(C)C)[C@@H](C)CC)[C@@H](C)CC)C(=O)N[C@@H](CC(N)=O)C(=O)N[C@@H](CCCNC(=N)N)C(=O)N[C@@H](CCCNC(=N)N)C(=O)N[C@@H]([C@@H](C)O)C(=O)N[C@H](CCN)C(=O)N[C@@H](CCCCN)C(=O)N1)C(=O)O [Example 39, Bis(2aminoethyl)Gly-Val-Pro-Ile-Ile-Tyr-Pen-Asn-Arg-Arg-Thr-^DDab-Lys-Cys-Dab-Arg-Nle] (HELM PEPTIDE1{[NCCN(CCN)CC(=O)[*:2]].V.P.I.I.Y.[Pen].N.R.R.T.[NCC[C@@H](N[*:1])C(=O)[*:2]].K.C.[Dab].R.[Nle]}$PEPTIDE1,PEPTIDE1,7:R3-14:R3$$$V2.0)	≤0.03125	0.0625	0.0625	0

Continued, in another order:

Escherichia coli MCR-1 Af 45 MIC [1] [µg/mL]	Klebsiella pneumoniae SSI3010 MIC [2] [µg/mL]	Escherichia coli ATCC 25922 MIC [3] [µg/mL]	Compound	Hemolysis at 0.2 g/L [4] [%]
0.125	0.25	0.125	CC[C@H](C)[C@H](NC(=O)[C@@H]1C[C@@H](O)CN1C(=O)[C@@H](NC(=O)[C@@H]1C[C@@H](O)CN1C(=N)N)C(C)C)C(=O)N[C@H](C(=O)N[C@@H](Cc1ccc(O)cc1)C(=O)N[C@@H]1C(=O)N[C@@H](CC(N)=O)C(=O)N[C@@H](CCCNC(=N)N)C(=O)N[C@@H](CCN)C(=O)N[C@@H]([C@@H](C)O)C(=O)N[C@H](CCN)C(=O)N[C@@H](CCCCN)C(=O)N[C@H](C(=O)N[C@@H](CCN)C(=O)N[C@@H](CCCNC(=N)N)C(=O)N[C@@H](Cc2ccc(O)cc2)C(=O)O)CSSC1(C)C)[C@@H](C)O [Example 35, Gua-Hyp-Val-Hyp-Ile-Thr-Tyr-Pen-Asn-Arg-Dab-Thr-^DDab-Lys-Cys-Dab-Arg-Tyr] (HELM PEPTIDE1{[N=C(N)N1C[C@H](O)C[C@H]1C(=O)[*:2]].V.[Hyp].I.T.Y.[Pen].N.R.[Dab].T.[NCC[C@@H](N[*:1])C(=O)[*:2]].K.C.[Dab].R.Y}$PEPTIDE1,PEPTIDE1,7:R3-14:R3$$$V2.0)	0
0.0625	0.125	0.125	CC[C@H](C)[C@H](NC(=O)[C@@H]1C[C@@H](N)CN1C(=O)[C@@H](NC(=O)[C@@H]1C[C@@H](O)CN1C(=N)N)C(C)C)C(=O)N[C@H](C(=O)N[C@@H](Cc1ccc(O)cc1)C(=O)N[C@@H]1C(=O)N[C@@H](CC(N)=O)C(=O)N[C@@H](CCCNC(=N)N)C(=O)N[C@@H](CCN)C(=O)N[C@@H]([C@@H](C)O)C(=O)N[C@H](CCN)C(=O)N[C@@H](CCCCN)C(=O)N[C@H](C(=O)N[C@@H](CCN)C(=O)N[C@@H](CCCNC(=N)N)C(=O)N[C@@H](Cc2ccc(O)cc2)C(=O)O)CSSC1(C)C)[C@@H](C)O [Example 36, Gua-Hyp-Val-Pro((4R)NH2)-Ile-Thr-Tyr-Pen-Asn-Arg-^Dab-Thr-^DDab-Lys-Cys-Dab-Arg-Tyr] (X2-V[Pro(4R-NH2)]ITY[Pen]NR[Dab]T[dDab]KC[Dab]RY-OH; disulfide 6-13)	0
0.0625	0.125	0.25	CC[C@H](C)[C@H](NC(=O)[C@@H]1C[C@@H](O)CN1C(=O)[C@@H](NC(=O)[C@@H]1C[C@@H](N)CN1C(=N)N)C(C)C)C(=O)N[C@H](C(=O)N[C@@H](Cc1ccc(O)cc1)C(=O)N[C@@H]1C(=O)N[C@@H](CC(N)=O)C(=O)N[C@@H](CCCNC(=N)N)C(=O)N[C@@H](CCN)C(=O)N[C@@H]([C@@H](C)O)C(=O)N[C@H](CCN)C(=O)N[C@@H](CCCCN)C(=O)N[C@H](C(=O)N[C@@H](CCN)C(=O)N[C@@H](CCCNC(=N)N)C(=O)N[C@@H](Cc2ccc(O)cc2)C(=O)O)CSSC1(C)C)[C@@H](C)O [Example 38, Gua-Pro((4R)NH2)-Val-Hyp-Ile-Thr-Tyr-Pen-Asn-Arg-Dab-Thr-^DDab-Lys-Cys-Dab-Arg-Tyr] (HELM PEPTIDE1{[N=C(N)N1C[C@H](N)C[C@H]1C(=O)[*:2]].V.[Hyp].I.T.Y.[Pen].N.R.[Dab].T.[NCC[C@@H](N[*:1])C(=O)[*:2]].K.C.[Dab].R.Y}$PEPTIDE1,PEPTIDE1,7:R3-14:R3$$$V2.0)	0
